Results: patent US9497970B2, “Pesticide compounds” (priority 2013, dated 2016)
Like-named read-outs stand apart in the source and are kept apart here.

Tests used:
Format in all cases: in vivo
[1] = tested on: Boll Weevil (Anthonomus grandis); assay: B.3 Boll Weevil (Anthonomus grandis), microtiter plate insect diet; settings: 120 h, read-out: mortality (egg and larval)
Method in brief: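 Compounds in 25% DMSO/water sprayed at several concentrations onto insect diet in microtiter wells holding 5–10 A. grandis eggs, two replicates. Plates kept 5 days at about 25±1 °C and 75±5% RH. Egg and larval mortality scored visually.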

[2] = tested on: Vetch Aphid (Megoura viciae); assay: B.8 Vetch Aphid (Megoura viciae), broad bean leaf disks; settings: foliar, 120 h
Protocol: B.8 Vetch Aphid (Megoura viciae)
For evaluating control of vetch aphid (Megoura viciae) through contact or systemic means the test unit consisted of 24-well-microtiter plates containing broad bean leaf disks.
The compounds were formulated using a solution containing 75% v/v water and 25% v/v DMSO. Different concentrations of formulated compounds were sprayed onto the leaf disks at 2.5 μl, using a custom built micro atomizer, at two replications.
After application, the leaf disks were air-dried and 5-8 adult aphids placed on the leaf disks inside the microtiter plate wells. The aphids were then allowed to suck on the treated leaf disks and incubated at about 23±1° C. and about 50±5% relative humidity for 5 days. Aphid mortality and fecundity was then visually assessed.

[3] = tested on: Southern Armyworm (Spodoptera eridania), 2nd Instar Larvae; assay: B.10 Southern Armyworm (Spodoptera eridania), 2nd Instar Larvae, sprayed lima bean plants; settings: 96 h
Method in brief: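 Lima bean plants at 1st true leaf stage sprayed electrostatically with compound in 50% acetone:50% water plus 0.01% nonionic surfactant, then infested with about 10 to 11 2nd instar larvae. Mortality and reduced feeding assessed 4 days after treatment at about 25° C versus untreated plants.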

[4] = tested on: Yellow Fever Mosquito (Aedes aegypti); assay: whole plant or invertebrate; settings: 48 h, freshly hatched larvae in tap water, 2 days, in comparison with untreated controls, read-out: mortality (larval)
Method in brief: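 Freshly hatched A. aegypti larvae, 5–15 per well, were held in 200 μl tap water. Compounds formulated in 75:25 water:DMSO were sprayed at various concentrations, 2.5 μl per well by micro-atomizer, in two replicates.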

[5] = tested on: Mediterranean Fruitfly (Ceratitis capitata); assay: B.6 Mediterranean Fruitfly (Ceratitis capitata), microtiter plate insect diet; settings: 120 h, read-out: mortality (egg and larval)
Method in brief: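 Insect diet with 50-80 C. capitata eggs sprayed with compounds formulated in 75% water/25% DMSO, at different concentrations, two replications. Incubation at about 28±1° C and 80±5% relative humidity for 5 days, then egg and larval mortality assessed visually.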

[6] = tested on: Tobacco Budworm (Heliothis virescens); assay: B.7 Tobacco Budworm (Heliothis virescens) I, microtiter plate insect diet; settings: 120 h, read-out: mortality (egg and larval)
Method in brief: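 96-well plates with insect diet and 15-25 H. virescens eggs; compounds in 75% water/25% DMSO sprayed onto diet at several concentrations, two replicates. Plates held at about 28±1° C. and 80±5% relative humidity for 5 days, then egg and larval mortality scored visually.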

[7] = tested on: Diamond Back Moth (Plutella xylostella); assay: B.1 Diamond Back Moth (Plutella xylostella), cabbage leaf dip; settings: foliar
Method in brief: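 Cabbage leaves dipped in compound in 1:1 water:acetone with 0.01% Kinetic HV surfactant, air-dried, then infested with ten 3rd-instar larvae on moist filter paper. Mortality scored at 72 h after treatment; feeding damage rated on a 0-100% scale.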

[8] = tested on: Silverleaf Whitefly (Bemisia argentifoli); assay: B.5 Silverleaf Whitefly (Bemisia argentifoli), sprayed cotton plants; settings: 72 h, whitefly adults on sprayed cotton plants, 3 days after treatment, in comparison with untreated controls
Protocol: B.5 Silverleaf Whitefly (Bemisia argentifoli)
(§1) The active compounds were formulated by a Tecan liquid handler in 100% cyclohexanone as a 10,000 ppm solution supplied in tubes. The 10,000 ppm solution was serially diluted in 100% cyclohexanone to make interim solutions. These served as stock solutions for which final dilutions were made by the Tecan in 50% acetone:50% water (v/v) into 5 or 10 ml glass vials. A nonionic surfactant (Kinetic®) was included in the solution at a volume of 0.01% (v/v). The vials were then inserted into an automated electrostatic sprayer equipped with an atomizing nozzle for application to plants/insects.
Cotton plants at the cotyledon stage (one plant per pot) were sprayed by an automated electrostatic plant sprayer equipped with an atomizing spray nozzle. The plants were dried in the sprayer fume hood and then removed from the sprayer. Each pot was placed into a plastic cup and about 10 to 12 whitefly adults (approximately 3-5 days old) were introduced. The insects were collected using an aspirator and a nontoxic Tygon® tubing connected to a barrier pipette tip. The tip, containing the collected insects, was then gently inserted into the soil containing the treated plant, allowing insects to crawl out of the tip to reach the foliage for feeding. Cups were covered with a reusable screened lid. Test plants were maintained in a growth room at about 25° C. and about 20-40% relative humidity for 3 days, avoiding direct exposure to fluorescent light (24 hour photoperiod) to prevent trapping of heat inside the cup. Mortality was assessed 3 days after treatment, compared to untreated control plants.

[9] = tested on: Orchid thrips (dichromothrips corbetti); assay: B.12 Orchid thrips (dichromothrips corbetti), floral-immersion technique; settings: adult thrips on dipped orchid petals, 72 hours after treatment, in comparison with untreated controls
Method in brief: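 Whole orchid flower petals were dipped in compound in 1:1 acetone:water with 0.01% v/v Kinetic HV, dried, and enclosed with about 20 adult thrips. They were held under continuous light at about 28° C. Live thrips were counted and percent mortality recorded at 72 hours.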

[10] = tested on: Green Peach Aphid (Myzus persicae); assay: B.9 Green Peach Aphid (Myzus persicae), sprayed bell pepper plants; settings: 120 h, infested bell pepper plants sprayed, after 5 days, in comparison with untreated controls
Protocol: B.9 Green Peach Aphid (Myzus persicae)
as §1, with “in 100% cyclohexa none as a” for “in 100% cyclohexanone as a”
Bell pepper plants at the first true-leaf stage were infested prior to treatment by placing heavily infested leaves from the main colony on top of the treatment plants. Aphids were allowed to transfer overnight to accomplish an infestation of 30-50 aphids per plant and the host leaves were removed. The infested plants were then sprayed by an automated electrostatic plant sprayer equipped with an atomizing spray nozzle. The plants were dried in the sprayer fume hood, removed, and then maintained in a growth room under fluorescent lighting in a 24-hr photoperiod at about 25° C. and about 20-40% relative humidity. Aphid mortality on the treated plants, relative to mortality on untreated control plants, was determined after 5 days.

[11] = 800 ppm, sprayed onto insect diet, 5 days, in comparison with untreated controls
[12] = 2500 ppm, adult aphids on sprayed leaf disks, 5 days, in comparison with untreated controls, read-out: mortality
[13] = 300 ppm, larvae on sprayed lima bean plants, 4 days after treatment, in comparison with untreated controls, read-out: mortality
[14] = 500 ppm, 3rd instar larvae on dipped cabbage leaves, 72 hours after treatment, in comparison with untreated controls, read-out: mortality

CC(C)c1ccccc1N1CCSC1=N/N=C/c1ccc2c(ccc3c2ncn3-c2ccc(OC(F)(F)F)cc2)c1 (stereo in doubt) [C-53, (E)-3-(2-isopropylphenyl)-N-[(E)-[3-[4-(trifluoromethoxy)phenyl]benzo[e]benzimidazol-7-yl]methyleneamino] thiazolidin-2-imine]
≥ 75%: mortality at 800 ppm [1, 11] | mortality at 2500 ppm [2, 12] | mortality at 300 ppm [3, 13] | mortality at 800 ppm [4] | mortality at 800 ppm [5, 11] | mortality at 800 ppm [6, 11] | mortality at 500 ppm [7, 14] | mortality at 300 ppm [8] | mortality at 500 ppm [9]

Fc1ccc(NC(=S)N/N=C/c2ccc3c(ccc4c3ncn4-c3ccc(OC(F)(F)F)cc3)c2)c(F)c1 [C-5, 1-(2,4-difluorophenyl)-3-[(E)-[3-[4-(trifluoromethoxy)phenyl]benzo[e]benzimidazol-7-yl]methyleneamino] thiourea]
≥ 75%: mortality at 800 ppm [1, 11] | mortality at 2500 ppm [2, 12] | mortality at 800 ppm [5, 11] | mortality at 800 ppm [6, 11] | mortality at 500 ppm [7, 14]

FC(F)(F)Oc1ccc(-c2onc3c2CCc2cc(/C=N/NC(=S)Nc4cc(C(F)(F)F)ccc4Cl)ccc2-3)cc1 [C-18, 1-[2-chloro-5-(trifluoromethyl)phenyl]-3-[(E)-[3-[4-(trifluoromethoxy)phenyl]-4,5-dihydrobenzo[g][2,1]benzoxazol-7-yl]methyleneamino]thiourea]
≥ 75%: mortality at 2500 ppm [2, 12]

O=[N+]([O-])c1ccccc1NC(=S)N/N=C/c1ccc2c(c1)CCc1c-2nnn1-c1ccc(OC(F)(F)F)cc1 [C-43, 1-(2-nitrophenyl)-3-[[3-[4-(trifluoromethoxy)phenyl]-5,6-dihydro-4H-benzo[e]benzotriazol-7-ylidene]methylimino]thiourea]
≥ 75%: mortality at 2500 ppm [2, 12] | mortality at 800 ppm [10]

CC(C)c1ccccc1N1C(=O)CS/C1=N\N=C\c1ccc2c(ccc3c2ncn3-c2ccc(OC(F)(F)F)cc2)c1 [C-51]
≥ 75%: mortality at 800 ppm [1, 11] | mortality at 300 ppm [3, 13] | mortality at 800 ppm [4] | mortality at 800 ppm [10] | mortality at 800 ppm [5, 11] | mortality at 800 ppm [6, 11] | mortality at 500 ppm [7, 14] | mortality at 300 ppm [8] | mortality at 500 ppm [9]

CC(OC(=O)Nc1ccc2c(ccc3c2ncn3-c2ccc(OC(F)(F)F)cc2)c1)c1ccc(Cl)cn1 (stereo not drawn) [C-56, 1-(5-chloro-2-pyridyl)ethyl N-[3-[4-(trifluoromethoxy)phenyl]benzo[e]benzimidazol-7-yl]carbamate]
≥ 75%: mortality at 800 ppm [1] | mortality at 2500 ppm [2] | mortality at 300 ppm [3] | mortality at 800 ppm [4] | mortality at 800 ppm [5] | mortality at 800 ppm [6] | mortality at 500 ppm ([7]; 72 h)

Cc1cccc(C)c1NC(=S)N/N=C/c1ccc2c(ccc3c2ncn3-c2ccc(SC(F)(F)F)cc2)c1 [C-75, 1-(2,6-dimethylphenyl)-3-[(E)-[3-[4-(trifluoromethylsulfanyl)phenyl]benzo[e]benzimidazol-7-yl]methyleneamino] thiourea]
≥ 75%: mortality at 800 ppm [1, 11] | mortality at 300 ppm [3, 13] | mortality at 800 ppm [4] | mortality at 800 ppm [10] | mortality at 800 ppm [5, 11] | mortality at 800 ppm [6, 11] | mortality at 500 ppm [7, 14] | mortality at 300 ppm [8] | mortality at 500 ppm [9]

CCc1cccc(C)c1NC(=S)N/N=C/c1ccc2c(ccc3c2ncn3-c2ccc(SC(F)(F)F)cc2)c1 [C-76, 1-(2-ethyl-6-methyl-phenyl)-3-[(E)-[3-[4-(trifluoromethylsulfanyl)phenyl]benzo[e]benzimidazol-7-yl]methyleneamino]thiourea]
≥ 75%: mortality at 800 ppm [1, 11] | mortality at 300 ppm [3, 13] | mortality at 800 ppm [4] | mortality at 800 ppm [10] | mortality at 800 ppm [5, 11] | mortality at 800 ppm [6, 11] | mortality at 500 ppm [7, 14] | mortality at 300 ppm [8] | mortality at 500 ppm [9]

Cc1cccc(Cl)c1NC(=S)N/N=C/c1ccc2c(ccc3c2ncn3-c2ccc(C(F)(F)F)cc2)c1 [C-77, 1-(2-chloro-6-methyl-phenyl)-3-[(E)-[3-[4-(trifluoromethyl)phenyl]benzo[e]benzimidazol-7-yl]methyleneamino] thiourea]
≥ 75%: mortality at 800 ppm [1, 11] | mortality at 300 ppm [3, 13] | mortality at 800 ppm [4] | mortality at 800 ppm [10] | mortality at 800 ppm [5, 11] | mortality at 800 ppm [6, 11] | mortality at 500 ppm [7, 14] | mortality at 300 ppm [8] | mortality at 500 ppm [9]

Cc1cccc(C)c1NC(=S)N/N=C/c1ccc2c(ccc3c2ncn3-c2ccc(C(F)(F)F)cc2)c1 [C-86, 1-(2,6-dimethylphenyl)-3-[(E)-[3-[4-(trifluoromethyl)phenyl]benzo[e]benzimidazol-7-yl]methyleneamino]thiourea]
≥ 75%: mortality at 800 ppm [1, 11] | mortality at 2500 ppm [2, 12] | mortality at 300 ppm [3, 13] | mortality at 800 ppm [4] | mortality at 800 ppm [10] | mortality at 800 ppm [5, 11] | mortality at 800 ppm [6, 11] | mortality at 500 ppm [7, 14] | mortality at 500 ppm [9]

Cc1ccc(-n2cnc3c4ccc(/C=N/NC(=S)Nc5c(C)cccc5C)cc4ccc32)cc1 [C-105, 1-(2,6-dimethylphenyl)-3-[(E)-[3-(p-tolyl)benzo[e]benzimidazol-7-yl]methyleneamino]thiourea]
≥ 75%: mortality at 800 ppm [1, 11] | mortality at 2500 ppm [2, 12] | mortality at 800 ppm [5, 11]
